# Where “and” joins values, the source holds several entries; their conditions need not be identical. Identical values can stand only once.
# Columns and labels:
# [1] = Stability of treated (extracted) human plasma samples of AST-2660 at 4° C. (LC-MS/MS); assay type: physicochemical; conditions: stored for 54 hours at 4° C.
# Description: (§1) The detection method established in example 4 was used to detect the content of AST-2660 in the human plasma to be tested.
# Matrix: the mixed normal human plasma containing anticoagulant (K2 EDTA) • a: the internal standard working solution: AST-2660-D8 was taken, added with methanol, and diluted to prepare a solution containing about 100 ng per 1 ml. • b: the solution to be tested (no internal standard compound was added to the solution to be tested at this time): it was obtained by taking a blood sample to be tested. • c: the standard working solution (no internal standard compound was added to the standard working solution at this time): an appropriate amount of AST-2660 was taken and accurately weighed, dissolved with methanol, and diluted to prepare a solution containing about 1.0 mg per 1 ml, which was used as the standard working stock solution. […]
# (§2) Calculation results: the relationship function y=f (x) of the ratio of the peak area of the AST-2660 to that of the internal standard was obtained from AST-2660 standard working solutions with different concentrations. The ratio of the peak area of the AST-2660 to that of the internal standard was determined from the solution to be tested after extraction, and substituted into the relationship function y=f (x) to calculate the concentration of the metabolite II in the solution to be tested.
# [2] = Experimental table stability of AST-2660 in human plasma at room temperature (LC-MS/MS); assay type: in vitro ADME; conditions: for AST-2660 concentration, Mean value / AST-2660 concentration, single replicates / RE (%) vs nominal: human plasma, room temperature
# Description: as §1
# Matrix: the mixed normal human plasma containing anticoagulant (K2 EDTA) • a: the internal standard working solution: AST-2660-D8 was taken, added with methanol, and diluted to prepare a solution containing about 100 ng per 1 ml. • b: the solution to be tested (no internal standard compound was added to the solution to be tested at this time): it was obtained by taking a blood sample to be tested. • c: the standard working solution (no internal standard compound was added to the standard working solution at this time): an appropriate amount of AST-2660 was taken and accurately weighed, dissolved with methanol, and diluted to prepare a solution containing about 1.0 mg per 1 ml, which was used as the standard working stock solution. An appropriate amount of the standard working stock solution was taken, added with the matrix and diluted to prepare standard working solutions with different concentrations containing about 200 ng, 160 ng, 100 ng, 50 ng, 10 ng, 2.0 ng, 1.0 ng and 0.5 ng per 1 ml, respectively. (The solution was stored at −70° C.) • d: the quality control sample solution: an appropriate amount of AST-2660 was taken and accurately weighed, dissolved with methanol, and diluted to prepare a solution containing about 10 μg per 1 ml, which was used as the quality control working stock solution. An appropriate amount of the quality control working stock solution was taken, added with matrix to prepare quality control working solutions with different concentrations containing about 150 ng, 60 ng, 15 ng, 1.5 ng and 0.5 ng per 1 ml. (The solution was stored at −70° C.)
# The solution to be tested, the standard working solution and the quality control sample solution were thawed at room temperature and mixed uniformly. 100 μl of the above solution was respectively taken, added with 20 μl of the internal standard and 500 μl of methanol, and vortexed for 3 minutes to mix uniformly, and then centrifuged for 10 minutes at 2143 rcf. 450 μl of the supernatant was taken and dried, and 150 μl of methanol was added for redissolution, and sonicated. Then the plates were centrifuged for 3 minutes at 4° C. It was obtained by taking […] of supernatant.
# Liquid phase conditions: A SHARC 1, 3 μm, 2.1*50 mm or chromatograph column with equivalent performance was used; the mobile phase was a methanol solution comprising low content of ammonium acetate; the mobile phase B was acetonitrile; the gradient elution was performed according to the following table, column temperature: 20° C.; injection volume: 5 μl.
# Mass spectrometric conditions: electrospray ion source with negative ion scanning mode; spray potential: −4500 V; ion source temperature: 500° C.; collision energy (CE): −22 eV; declustering potential (DP): −55V; entrance potential (EP): −10V; collision chamber exit potential (CXP): −16V; dwell time: 100 ms; high purity nitrogen was used for all gases; AST-2660 ions pairs: m/z 147.0→m/z 62.9; the internal standard AST-2660-D8 ion pairs: m/z 155.0→m/z 62.9.
# The AST-2660 standard working solution, blank sample, zero concentration sample, sample solution to be tested and quality control sample solution with different concentrations after extraction were respectively taken and injected into LC-MS/MS for detection.
# as §2
# [3] = DilQC (10-fold dilution) nominal 1500 ng/ml, 0 hour
# [4] = DilQC (10-fold dilution) nominal 1500 ng/ml, 4 hours
# [5] = DilQC (10-fold dilution) nominal 1500 ng/ml, 24 hours
# [6] = QC1 nominal 1.50 ng/ml, 4 hours
# [7] = QC1 nominal 1.50 ng/ml, 24 hours
# [8] = QC4 nominal 150 ng/ml, 24 hours
compound,measurement,setting,value
O=P([O-])(N1CC1)N1CC1.[Na+] [AST-2660],stability of content (in words),[1],stable
same,stability (in words),[2]; human plasma samples at room temperature,not stable
same,"AST-2660 concentration, Mean value",[2]; [3],1680 ng/mL
same,"AST-2660 concentration, single replicates",[2]; [3],1610 ng/mL and 1770 ng/mL and 1700 ng/mL and 1640 ng/mL
same,RE (%) vs nominal,[2]; [3],12.0%
same,"AST-2660 concentration, Mean value",[2]; [4],1593 ng/mL
same,"AST-2660 concentration, single replicates",[2]; [4],1500 ng/mL and 1710 ng/mL and 1600 ng/mL and 1560 ng/mL
same,RE (%) vs nominal,[2]; [4],6.2%
same,"AST-2660 concentration, Mean value",[2]; [5],1455 ng/mL
same,"AST-2660 concentration, single replicates",[2]; [5],1380 ng/mL and 1500 ng/mL and 1480 ng/mL and 1460 ng/mL
same,RE (%) vs nominal,[2]; [5],−3.0%
same,"AST-2660 concentration, Mean value","[2]; QC1 nominal 1.50 ng/ml, 0 hour",1.42 ng/mL
same,"AST-2660 concentration, single replicates","[2]; QC1 nominal 1.50 ng/ml, 0 hour",1.44 ng/mL and 1.32 ng/mL and 1.38 ng/mL and 1.55 ng/mL
same,RE (%) vs nominal,"[2]; QC1 nominal 1.50 ng/ml, 0 hour",−5.2%
same,"AST-2660 concentration, Mean value",[2]; [6],1.35 ng/mL
same,"AST-2660 concentration, single replicates",[2]; [6],1.34 ng/ml (2×) and 1.31 ng/ml and 1.42 ng/ml
same,RE (%) vs nominal,[2]; [6],−9.8%
same,"AST-2660 concentration, Mean value",[2]; [7],1.32 ng/mL
same,"AST-2660 concentration, single replicates",[2]; [7],1.33 ng/mL and 1.28 ng/mL and 1.38 ng/mL and 1.27 ng/mL
same,RE (%) vs nominal,[2]; [7],−12.3%
same,"AST-2660 concentration, Mean value","[2]; QC4 nominal 150 ng/ml, 0 hour",136 ng/mL
same,"AST-2660 concentration, single replicates","[2]; QC4 nominal 150 ng/ml, 0 hour",130 ng/mL and 142 ng/mL and 135 ng/mL and 137 ng/mL
same,RE (%) vs nominal,"[2]; QC4 nominal 150 ng/ml, 0 hour",−9.3%
same,"AST-2660 concentration, Mean value","[2]; QC4 nominal 150 ng/ml, 4 hours",138 ng/mL
same,"AST-2660 concentration, single replicates","[2]; QC4 nominal 150 ng/ml, 4 hours",130 ng/mL and 141 ng/mL and 136 ng/mL and 145 ng/mL
same,RE (%) vs nominal,"[2]; QC4 nominal 150 ng/ml, 4 hours",−8.0%
same,"AST-2660 concentration, Mean value",[2]; [8],125 ng/mL
same,"AST-2660 concentration, single replicates",[2]; [8],117 ng/mL and 128 ng/mL and 124 ng/mL and 129 ng/mL
same,RE (%) vs nominal,[2]; [8],−17.0%
